Laboratory results reported in US20250282825A1, “NOVEL CYCLIC COMPOUNDS, METHOD FOR THEIR PREPARATION AND THE USE OF SAID CYCLIC COMPOUNDS IN COSMETIC PREPARATIONS” (priority 2020, published 2025).

How the values were obtained:
S. aureus N315 LugIEFGH = type: cell-based, Staphylococcus aureus; settings: for recognized and transported by the lugdunin transporters LugIEFGH: derived from MIC ratio, FIG. 5
[1] = tested on: human primary keratinocytes; test: WST-1 assay (cell viability/cytotoxicity); type: cell-based; settings: 3.1 μg/ml, 6 h, 37° C., keratinocytes from three donors, versus DMSO solvent control
Description: To determine possible cytotoxicity, a WST-1 assay was first performed using human primary keratinocytes from three different donors according to the manufacturer's instructions. The colorimetric assay measures cell viability of cells and can therefore be used to determine cytotoxic compounds incubated with the cells. The greater the number of viable cells, the higher the activity of mitochondrial dehydrogenases and the greater the amount of dye formed in the assay. […] Cell culture supernatants were then removed, and WST1 reagent was added to the keratinocytes. […] DMSO served as a negative control (solvent control).

[2] = tested on: human primary keratinocytes; test: LDH assay (lactate dehydrogenase release); type: cell-based; settings: 3.1 μg/ml, 24 h, 37° C., keratinocytes from three donors, relative to Triton-X (100%)
Description: To verify the results, an LDH assay was performed using human primary keratinocytes from three different donors according to the manufacturer's instructions. This assay is based on the detection of the enzyme lactate dehydrogenase, which is released into the cell culture medium when the cell membrane is damaged, where it can then be detected. […] Subsequently, 50 μl of each cell culture supernatant was transferred to a 96well plate, mixed with 50 μl of LDH reagent and measured (according to manufacturer's instructions). […] DMSO served as a negative control (solvent control).

For `CC(C)C[C@H]1NC(=O)[C@H](Cc2c[nH]c3ccccc23)NC(=O)[C@@H](C(C)C)NC(=O)[C@H]2NC(SC2(C)C)[C@H](C(C)C)NC(=O)[C@@H](C(C)C)NC(=O)[C@H](C(C)C)NC1=O` [I.1], the formation of resistance (S. aureus N315 LugIEFGH; conclusion from MIC ratio) was “no formation of resistance is to be expected”, the “recognized and transported by the lugdunin transporters LugIEFGH” value (S. aureus N315 LugIEFGH) was “neither I.1 nor CCCP, is recognized and transported” and the “MIC ratio MIC(S. aureus LugIEFGH)/MIC(S. aureus Wt)” value (S. aureus N315 LugIEFGH; ratio close to 1 = no resistance increase by the transporters, lugdunin value is the median) was 1.064.
For `CC(C)C[C@H]1NC(=O)[C@H](Cc2c[nH]c3ccccc23)NC(=O)[C@@H](C(C)C)NC(=O)[C@H]2NC(SC2(C)C)[C@H](C(C)C)NC(=O)[C@@H](Cc2c[nH]c3ccccc23)NC(=O)[C@H](C(C)C)NC1=O` [I.3], the “cytotoxic effect in WST-1 assay” value [1] was “no such cytotoxic effect”, the “cytotoxic effect in LDH assay” value [2] was “no significant cytotoxic effect” and the virus inhibition (SARS-CoV-2; A549 cells, SARS-CoV-2 MOI=1.0, concentration 3.7 μM) was “about 80%”. For the same compound, the “antiviral activity relative to lugdunin” value (SARS-CoV-2; higher antiviral activity than lugdunin, from EC50 values) was “approximately 9 fold” and the EC50 (SARS-CoV-2; read-out: EC50 (SARS-CoV-2 antiviral activity), A549 cells, SARS-CoV-2 MOI=1.0) was 2220 nM.
For “carbonyl cyanide-3-chrlophenylhydrazone [CCCP, reference compound]”, the “recognized and transported by the lugdunin transporters LugIEFGH” value (S. aureus N315 LugIEFGH) was “neither I.1 nor CCCP, is recognized and transported”.
